According to ChEMBL document CHEMBL5233262, “Anti-inflammatory activity of naturally occuring diarylheptanoids - A review” (Bioorg Med Chem, 2021):
≈ marks a conversion by molar mass, not a printed value. Residues, ends and D or L forms follow the SMILES beside them. *: point of attachment. Cbz = O=C(OCc1ccccc1)*

Columns and labels:
J774.1 [1] = assay: Antiinflammatory activity in mouse J774.1 cells assessed as inhibition of LPS-induced NO production incubated for 48 hrs by Griess reagent based analysis; format: functional, cell-based
RAW264.7 [2] = assay: Antiinflammatory activity in mouse RAW264.7 cells assessed as inhibition of IFN-gamma and LPS-induced NO production incubated for 24 hrs by Griess assay; format: functional, cell-based; settings: RAW264.7, 24 h
RAW264.7 [3] = assay: Antiinflammatory activity against mouse RAW264.7 cells assessed as inhibition of IFN-gamma and LPS-induced COX2 production preincubated for 2 hrs followed by IFN-gamma and LPS stimulation and measured after 16 hrs by spectrophotometric analysis; format: functional, cell-based
J774.1 [4] = assay: Antiinflammatory activity in mouse J774.1 cells assessed as inhibition of LPS-induced NO production at 100 microg/ml; format: functional
J774.1 [5] = assay: Cytotoxicity in mouse J774.1 cells assessed as reduction in cell viability at 100 microg/ml; format: toxicity, cell-based; settings: at 100 µg/mL
[6] = Inhibition of COX in bovine seminal vesicle assessed as reduction in PGE2 production using arachidonic acid as substrate; format: tissue-based, Bos taurus
[7] = Antioxidant activity assessed as […] radical scavenging activity at 50 uM; format: functional
Rattus norvegicus = assay: Antiinflammatory activity in rat model of carrageenan-induced paw edema assessed as reduction in paw thickness at 10 mg/kg,ip and measured after 4 hrs; format: functional; set-up: scale not given: the % may be the effect or the level left
[8] = Antioxidant activity assessed as ABTS radical scavenging activity measured after 6 mins; format: functional
RAW264.7 [9] = assay: Antiinflammatory activity in mouse RAW264.7 cells assessed as inhibition of LPS-induced NO production preincubated for 1 hrs followed by LPS stimulation and measured after 24 hrs by Griess reagent based spectrophotometrical method; format: functional, cell-based
Mus musculus [10] = assay: Antiinflammatory activity in ICR mouse model of TPA-induced ear edema assessed as inhibition of ear inflammation at 1 mg,TOP for 30 mins followed by TPA addition and measured after 6 hrs; format: functional; settings: time 390 min, 6.5 h
RAW264.7 [11] = assay: Antiinflammatory activity in mouse RAW264.7 cells assessed as inhibition of LPS-induced NO production incubated for 18 hrs by Griess method; format: functional, cell-based; settings: RAW264.7, 18 h
RAW264.7 [12] = assay: Antiinflammatory activity in mouse RAW264.7 cells assessed as inhibition of LPS-induced NO production for 24 hrs by Griess assay; format: functional, cell-based; settings: RAW264.7, 24 h
RAW264.7 [13] = assay: Antiinflammatory activity in mouse RAW264.7 cells assessed as inhibition of LPS-induced NO production preincubated for 0.5 hrs followed by LPS stimulation and measured after 24 hrs by Griess reagent based analysis; format: functional, cell-based
Mus musculus [14] = assay: Antiinflammatory activity in TPA-induced ear edema ICR mouse model assessed as inhibition of ear inflammation at 1 ug, TOP for 30 mins followed by TPA addition and measured after 6 hrs; format: functional; settings: dose 1 µg, time 390 min, 6.5 h
RAW264.7 [15] = assay: Antiinflammatory activity in mouse RAW264.7 cells assessed as inhibition of LPS-induced NO production preincubated for 1 hrs followed by LPS stimulation and measured after 24 hrs by Griess method; format: functional, cell-based
[16] = Antiinflammatory activity in mouse N11 cells assessed as inhibition of LPS-induced NO production preincubated for 1 hrs followed by LPS stimulation and measured after 24 hrs by Griess method; format: functional, cell-based
RAW264.7 [17] = assay: Antiinflammatory activity in mouse RAW264.7 cells assessed as inhibition of LPS-induced TNFalpha level preincubated for 1 hrs followed by LPS stimulation and measured after 24 hrs by ELISA; format: functional, cell-based
[18] = Antiinflammatory activity in mouse N11 cells assessed as inhibition of LPS-induced TNFalpha level preincubated for 1 hrs followed by LPS stimulation and measured after 24 hrs by ELISA; format: functional, cell-based

SMILES: COc1cc(O)c([C@H](/C=C/C[C@@H](O)CCc2ccc(O)cc2)c2ccc(O)cc2)c2oc(-c3ccc(O)cc3)cc(=O)c12 (stereo in doubt; 111)
- IC50 (J774.1 [1]; j774.1): 95 µM

SMILES: COc1cc(O)c([C@H](/C=C/C[C@H](CCc2ccc(O)cc2)OO)c2ccc(O)cc2)c(O)c1C(=O)/C=C/c1ccc(O)cc1
- IC50 (J774.1 [1]; Mus musculus, J774.1, 48 h): 49 µM

SMILES: OC[C@@]1(O)CO[C@@H](OC[C@H]2O[C@@H](O[C@H](CCCCc3ccc(O)c(O)c3)CCc3ccc(O)c(O)c3)[C@H](O)[C@@H](O)[C@@H]2O)[C@@H]1O
- IC50 (RAW264.7 [2]): 49.4 µg/mL (≈ 78.8 µM)
- IC50 (RAW264.7 [3]): 34.2 µg/mL (≈ 54.6 µM)

SMILES: COc1cc(O)c([C@@H](/C=C/C[C@@H](O)CCc2ccc(O)cc2)c2ccc(O)cc2)c2oc(-c3ccc(O)cc3)cc(=O)c12 (stereo in doubt; 112)
- IC50 (J774.1 [1]; Mus musculus, J774.1, 48 h): 104 µM
- inhibition at 100 µg/mL (J774.1 [4]): 90%
- Activity (J774.1 [5]): 85%

SMILES: COc1cc(O)c([C@@H](/C=C/C[C@@H](O)CCc2ccc(O)cc2)c2ccc(O)cc2)c2oc(-c3ccc(O)cc3)cc(=O)c12 (stereo in doubt; 113)
- IC50 (J774.1 [1]; j774.1): 83 µM

SMILES: NC1=NN(c2cccc(C(F)(F)F)c2)CC1 [BW-755C]
- IC50 [6]: 32 µM

SMILES: COc1c2cc(c(O)c1OC)CCCC[C@H](O)CCc1ccc(O)c-2c1
- Activity [7]: 41%
- Activity (Rattus norvegicus): 51.5%

SMILES: COc1c2cc(c(O)c1OC)CCCCC(=O)CCc1ccc(O)c-2c1 [MYRICANONE]
- IC50 [8]: 19.6 µM
- IC50 (RAW264.7 [9]): 1 µM
- Activity [7]: 41%
- Activity (Rattus norvegicus): 49.6%

SMILES: COc1c2cc(c(O[C@@H]3O[C@H](CO)[C@@H](O)[C@H](O)[C@H]3O)c1O)CCCCC(=O)CCc1ccc(OC(C)=O)c-2c1
- Activity [7]: 41%
- Activity (Rattus norvegicus): 46.3%

SMILES: OC[C@@]1(O)CO[C@@H](OC[C@H]2O[C@@H](O[C@@H]3CCCCc4ccc(O)c(c4)Oc4ccc(cc4)CC3)[C@H](O)[C@@H](O)[C@@H]2O)[C@@H]1O
- ID50 (Mus musculus [10]): 0.81 mg

SMILES: CC(C)C[C@@H](C=O)NC(=O)[C@H](CC(C)C)NC(=O)[C@H](CC(C)C)NC(=O)OCc1ccccc1 [MG-132] (Cbz-Leu-Leu-Leu-aldehyde)
- IC50 (RAW264.7 [11]): 0.1 µM

SMILES: Oc1ccc(CC[C@@H]2C[C@@H](O)C[C@H](c3ccc(O)c(O)c3)O2)cc1
- IC50 (RAW264.7 [12]): 27.9 µM

SMILES: OC[C@H]1O[C@@H](O[C@@H]2C[C@@H](CCc3ccc(O)cc3)O[C@@H](c3ccc(O)c(O)c3)C2)[C@H](O)[C@@H](O)[C@@H]1O
- IC50 (RAW264.7 [12]): 79.9 µM

SMILES: CCC(C)C(=O)O[C@@H]1[C@@H](O[C@@H](CCc2ccc(O)c(O)c2)CC(=O)CCc2ccc(O)c(O)c2)OC[C@H](O)[C@H]1O (stereo partly specified)
- IC50 (RAW264.7 [13]): 30 µM

SMILES: O=C(CCc1ccc(O)c(O)c1)C[C@H](CCc1ccc(O)c(O)c1)O[C@H]1OC[C@H](O)[C@@H](O)[C@@H]1OC(=O)/C=C/c1ccccc1
- IC50 (RAW264.7 [13]): 10.5 µM

SMILES: CO[C@@H](CCc1ccccc1)CC(=O)CCc1ccccc1
- ID50 (Mus musculus [14]): 2.7 µmol

SMILES: O=C1CCN(c2ccccc2)N1 [PHENIDONE]
- IC50 [6]: 11.8 µM

SMILES: Oc1ccc(CC[C@H]2C[C@@H](O)C[C@@H](c3ccc(O)c(O)c3)O2)cc1
- IC50 (RAW264.7 [12]): 17.3 µM

SMILES: COc1cc(O)c([C@H](/C=C/C[C@@H](O)CCc2ccc(O)cc2)c2ccc(O)cc2)c2oc(-c3ccc(O)cc3)cc(=O)c12 (stereo in doubt; 110)
- IC50 (J774.1 [1]; Mus musculus, J774.1, 48 h): 84 µM
- inhibition at 100 µg/mL (J774.1 [4]): 90%
- Activity (J774.1 [5]): 85%

SMILES: Oc1ccc(CCCC[C@H](O)CCc2ccc(O)cc2)cc1
- IC50 (RAW264.7 [11]): > 25 µM

SMILES: COc1ccc(C/C=C/CCCCc2ccc(O)cc2)cc1
- IC50 (RAW264.7 [15]): 47 µM
- IC50 [16]: 63.2 µM
- IC50 (RAW264.7 [17]): 29.6 µM
- IC50 [18]: 29.6 µM

SMILES: O=C(CCc1ccc(O)c(O)c1)C[C@H](CCc1ccc(O)cc1)O[C@@H]1OC[C@@H](O)[C@H](O)[C@H]1O
- IC50 (RAW264.7 [13]): 8.1 µM

SMILES: COc1cc(O)c([C@H](/C=C/C[C@@H](O)CCc2ccc(O)cc2)c2ccc(O)cc2)c(O)c1C(=O)[C@@H]1[C@H](/C=C/c2ccc(O)cc2)C[C@H](CCc2ccc(O)cc2)O[C@H]1c1ccc(O)cc1
- IC50 (J774.1 [1]; Mus musculus, J774.1, 48 h): 36 µM

SMILES: COc1ccc(C/C=C/CCCCc2cccc(O)c2)cc1
- IC50 (RAW264.7 [15]): 47 µM
- IC50 [16]: 44.2 µM
- IC50 (RAW264.7 [17]): 9.9 µM
- IC50 [18]: 29.6 µM

SMILES: O=C1CCc2ccc(cc2)Oc2cc(ccc2O)CC[C@@H](O[C@@H]2O[C@H](CO)[C@@H](O)[C@H](O)[C@H]2O)C1
- ID50 (Mus musculus [10]): 0.49 mg

SMILES: COc1cc(O)c([C@@H](/C=C/C[C@@H](O)CCc2ccc(O)cc2)c2ccc(O)cc2)c(O)c1C(=O)[C@@H]1[C@H](/C=C/c2ccc(O)cc2)C[C@H](CCc2ccc(O)cc2)O[C@H]1c1ccc(O)cc1
- IC50 (J774.1 [1]; Mus musculus, J774.1, 48 h): 39 µM

SMILES: COc1ccc(C/C=C/CCCCc2ccc(OC)c(OC)c2)cc1
- IC50 (RAW264.7 [15]): 28.3 µM
- IC50 [16]: 12.7 µM
- IC50 (RAW264.7 [17]): 5.3 µM
- IC50 [18]: 4.3 µM
